Experimental data as given in US11116764B2, “Combination of pure 5-HT6 receptor antagonists with NMDA receptor antagonist” (SUVEN LIFE SCIENCES LIMITED, priority 2016, dated 2021).
Counter-ions that a name gives are not always drawn.

Legend:
[1] = biological target: human recombinant 5-HT2A receptor (Homo sapiens (Human), UniProt P28223); experiment: Determination of Ki value at 5-HT2A receptor ([3H]-Ketanserine radioligand binding); conditions: [3H]-Ketanserine 1.75 nM, average of three independent experiments
Protocol: Determination of Ki Value at 5-HT2A Receptor
Compound was tested according to the following procedures.
Receptor source: Recombinant mammalian cells
Radioligand: [^3H]-Ketanserine (47.3 Ci/mmol)
Final ligand concentration—[1.75 nM]
Non-Specific Ligand: 0.1 mM 1-Naphthylpiperazine (1-NP)
Reference compound: 1-Naphthylpiperazine (1-NP)
Positive control: 1-Naphthylpiperazine (1-NP)
Incubation conditions: Reactions were carried out in 67 mM Tris-HCl (pH 7.4) for 4 hours at 37° C. The reaction was terminated by rapid vacuum filtration onto the glass fiber filters. Radioactivity trapped onto the filters was determined and compared to the control values in order to ascertain any interactions of the test compound(s) with the cloned serotonin 5-HT2A binding site. • Reference: Methods in Molecular Biology, 2002, 190, 31-49
Compounds 1, 2 and 3 bind weakly to 5-HT2A receptor when tested by the in-vitro radioligand binding technique on human recombinant 5-HT2A receptor. The Ki values tabulated below are average of three independent experiments.

Male Wistar rats [2] = experiment: Evaluation of theta modulation in dorsal hippocampus of anesthetized male Wistar rats; assay type: in vivo, rat; conditions: memantine 1 mg/kg i.v. alone or 30 min after compound 1 1 mg/kg i.v.
Excerpt: […]. Academic Press, New York Results:

Male Wistar rats [3] = experiment: Evaluation of acetylcholine modulation in ventral hippocampus of male Wistar rats (microdialysis); assay type: in vivo, rat; conditions: memantine 1 mg/kg s.c. alone or with compound 1 3 mg/kg p.o.; combination compared to memantine alone
Excerpt: Evaluation of Acetylcholine Modulation in Ventral Hippocampus of Male Wistar Rats Experimental Procedure:
Male Wistar rats (240-300 g body weight) were stereotaxically implanted with a microdialysis guide cannula in ventral hippocampus (AP: −5.2 mm, ML: +5.0 mm, DV: −3.8 mm) under isoflurane anesthesia. Co-ordinates were taken according to atlas for the rat brain (Paxinos and Watson 2004) with reference points taken from bregma and vertical from the skull. The rats were allowed to recover individually for four-five days in a round bottom Plexiglas bowl with free access to feed and water.
After surgical recovery of 4-5 days, male Wistar rats were connected to dual quartz lined two-channel liquid swivel (Instech, UK) on a counter balance lever arm, which allowed unrestricted movements of the animal. […]
Acetylcholine in dialysate was quantified using LC-MS/MS method in the calibration range of 0.099 nmol/L-70.171 nmol/L.
All microdialysis data for acetylcholine was plotted as percent change from mean dialysate basal concentrations with 100% defined as the average of five pre-dose values. […] Area under the curve (AUC) values for percent change in acetylcholine levels were calculated and the statistical significance between the mean AUC value were compared against memantine treatment using one-way ANOVA followed by Dunnett's test. […]

Male Wistar rats [4] = experiment: Object recognition task model; assay type: in vivo, rat; conditions: choice trial T2, 24 hours after T1; compared to the vehicle treatment
Protocol: Four animals were housed in each cage. […] Water was provided ad libitum throughout the experiment. […] Rats received vehicle or test compounds or memantine or test compound and memantine, before familiar (T1) and choice (T2) trials. […] During the T1 and T2 trial, explorations of each object (defined as sniffing, licking, chewing or having moving vibrissae whilst directing the nose towards the object at a distance of less than 1 cm) were recorded using stopwatch.

Structure (SMILES) | Ki [1] [nM] | change in hippocampal theta power (Male Wistar rats [2]) | change in hippocampal acetylcholine levels (Male Wistar rats [3]) | discriminative index (Male Wistar rats [4])
COc1ccc2c(c1)c(CN1CCN(C)CC1)cn2S(=O)(=O)c1ccc(C(C)C)cc1 [Compound 3, 1-[(4-Isopropylphenyl)sulfonyl]-5-methoxy-3-[(4-methyl-1-piperazinyl)methyl]-1H-indole dihydrochloride] | 926 ± 317 |  |  | 
COc1ccc2c(c1)c(CN1CCN(C)CC1)cn2S(=O)(=O)c1ccccc1Br [Compound 1, 1-[(2-Bromophenyl)sulfonyl]-5-methoxy-3-[(4-methyl-1-piperazinyl)methyl]-1H-indole dimesylate monohydrate] | 2510 ± 377 |  |  | 
CC12CC3CC(C)(C1)CC(N)(C3)C2 [memantine] |  | no change | moderate change | No significant increase
COc1ccc2c(c1)c(CN1CCN(C)CC1)cn2S(=O)(=O)c1ccc(F)cc1 [Compound 2, 1-[(4-Fluorophenyl)sulfonyl]-5-methoxy-3-[(4-methyl-1-piperazinyl)methyl]-1H-indole dihydrochloride] | > 10000 |  |  | 
